Some test systems named below: TK-10 renal; HCT-116 colon; UACC-62 melanoma; SK-MEL-5 melanoma; RXF 393 renal; T-47D breast; HOP-62 NSCLC.
Holding throughout (assay): NCI anticancer screen, dose series, 48 h

The text below walks through data of PubChem BioAssay (NCI).

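Where inhibition never reached the appropriate level, the endpoint shown equals the highest concentration tested. Otherwise, values were interpolated linearly from a five-concentration, 48-hour dose response in 96-well plates. GI50: concentration for 50% inhibition of growth. The concentration for full growth arrest is given as TGI.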 Where only a bound is given, the exact number is not on record here.

Regarding `CCC(C)CC(CC)NCCN1CCN(C(CC)CC(C)CC)C1=S` (stereo not drawn), the GI50 with TK-10 renal was 3.16 µM; with HCT-116 colon, 1.79 µM; in the assay on UACC-62 melanoma, 1.65 µM; in the assay on SK-MEL-5 melanoma it was 1.61 µM; in the assay on RXF 393 renal, 1.5 µM; in the assay with T-47D breast, 1.72 µM. Further, the GI50 in the assay on HOP-62 NSCLC is 1.82 µM. Besides, the TGI stood at 11 µM with TK-10 renal; 3.27 µM in the assay with HCT-116 colon; 3.05 µM in the assay on UACC-62 melanoma; 2.95 µM with SK-MEL-5 melanoma; 2.82 µM in the assay on RXF 393 renal; 3.57 µM with T-47D breast. In the assay with HOP-62 NSCLC, this compound yielded a TGI of 3.21 µM.

Turning to `O=C1C(=O)c2c(nc3ncccn23)-c2ccccc21`, the GI50 in the assay with TK-10 renal was 1.85 µM; in the assay with HCT-116 colon, 0.184 µM; in the assay on UACC-62 melanoma, 0.177 µM; in the assay with SK-MEL-5 melanoma, 0.167 µM; in the assay with RXF 393 renal, 0.497 µM; in the assay with T-47D breast, 0.264 µM. For the same compound, the GI50 with HOP-62 NSCLC was 0.296 µM. In addition, the TGI with TK-10 renal came out at 3.35 µM; with HCT-116 colon it was 0.379 µM; with UACC-62 melanoma, 0.326 µM; with SK-MEL-5 melanoma, 0.304 µM; in the assay on RXF 393 renal it was 0.967 µM; in the assay with T-47D breast, 1.02 µM. This compound came in with a TGI in the assay with HOP-62 NSCLC of 1.05 µM.

On to `COc1cc(/C=C/C(=O)c2cc(OC)c(OC)c(OC)c2)cc(OC)c1OC`, for which the GI50 with TK-10 renal was 4.42 µM; in the assay on HCT-116 colon, 2.3 µM; in the assay on UACC-62 melanoma, 5.93 µM; in the assay on SK-MEL-5 melanoma, 8.33 µM; in the assay with RXF 393 renal, 2.81 µM; with T-47D breast it was 3.5 µM. For the same compound, the GI50 in the assay on HOP-62 NSCLC is 4.07 µM. Besides, the TGI in the assay with TK-10 renal is 59.2 µM; in the assay with HCT-116 colon, 8.74 µM; with UACC-62 melanoma, 20.4 µM; in the assay on SK-MEL-5 melanoma, 21.1 µM; in the assay with RXF 393 renal, 11.4 µM; in the assay with T-47D breast, 31.5 µM. The same compound registered a TGI in the assay on HOP-62 NSCLC of 18.2 µM.

In the case of `Cc1[nH]nc(C(=O)Nc2n[nH]c3ccccc23)c1[N+](=O)[O-]`, the GI50 in the assay on TK-10 renal was over 100 µM; in the assay with HCT-116 colon, over 100 µM; with UACC-62 melanoma it was over 93.7 µM; in the assay on SK-MEL-5 melanoma, over 60.1 µM; in the assay on RXF 393 renal, over 100 µM; in the assay with T-47D breast, over 100 µM. In addition, in the assay on HOP-62 NSCLC, the GI50 was over 100 µM. Further, the TGI with TK-10 renal, in the assay with HCT-116 colon, in the assay on UACC-62 melanoma, in the assay on SK-MEL-5 melanoma, with RXF 393 renal and with T-47D breast was over 100 µM each time. Besides, the TGI in the assay on HOP-62 NSCLC is over 100 µM.

Regarding `C=C1C(=O)O[C@H]2[C@H]1CC/C(COC(=O)C(=O)c1cn(C)c3ccc(OC)cc13)=C\CC[C@@]1(C)O[C@@H]21`, the GI50 in the assay on TK-10 renal is 4.79 µM; with HCT-116 colon it was 3.61 µM; in the assay with UACC-62 melanoma it was 2.8 µM; in the assay on SK-MEL-5 melanoma, 4.03 µM; with RXF 393 renal it was 2.02 µM; with T-47D breast it was 5.98 µM. Further, the GI50 in the assay with HOP-62 NSCLC is 6.46 µM. The TGI with TK-10 renal stood at 13.2 µM; in the assay with HCT-116 colon, 7.38 µM; with UACC-62 melanoma it was 7.08 µM; in the assay with SK-MEL-5 melanoma it was 7.56 µM; in the assay with RXF 393 renal, 3.95 µM; in the assay with T-47D breast, 11.1 µM. This compound returned a TGI in the assay with HOP-62 NSCLC of 11.9 µM.

As for `COc1cccc2c(Nc3ccc(C(=O)NCCN(C)C)cc3)cc(-c3ccccc3)nc12`, the GI50 was 23.8 µM in the assay on TK-10 renal; 3.88 µM with HCT-116 colon; 18.2 µM in the assay on UACC-62 melanoma; 17.3 µM in the assay on SK-MEL-5 melanoma; 5.12 µM in the assay on RXF 393 renal; 19.7 µM in the assay on T-47D breast. For the same compound, the GI50 in the assay with HOP-62 NSCLC is 13.8 µM. Moreover, the TGI with TK-10 renal worked out at 57.2 µM; in the assay with HCT-116 colon it was 18.6 µM; with UACC-62 melanoma it was 32.5 µM; with SK-MEL-5 melanoma it was 32.1 µM; in the assay on RXF 393 renal, 19.7 µM; in the assay on T-47D breast, 50.2 µM. Moreover, the TGI in the assay on HOP-62 NSCLC worked out at 29.3 µM.

Regarding `Nc1nc(Nc2ccc3c(c2)CCC(N2CCCC2)CC3)nn1-c1cc2c(nn1)-c1ccccc1CCC2` (stereo not drawn), the GI50 in the assay with TK-10 renal was 1.14 µM; in the assay on HCT-116 colon, 0.754 µM; in the assay with UACC-62 melanoma it was 1.5 µM; with SK-MEL-5 melanoma it was 1.45 µM; in the assay on RXF 393 renal it was 0.631 µM; with T-47D breast, 1.75 µM. The GI50 in the assay on HOP-62 NSCLC was 1.5 µM. Besides, the TGI in the assay with TK-10 renal is 2.61 µM; in the assay with HCT-116 colon, 2.02 µM; in the assay on UACC-62 melanoma, 3.07 µM; in the assay on SK-MEL-5 melanoma it was 2.78 µM; in the assay with RXF 393 renal it was 1.87 µM; with T-47D breast, 3.95 µM. In the assay on HOP-62 NSCLC, this compound gave a TGI of 3.11 µM.

With `C[C@@]12CCC[C@@](C)(C(=O)O)C1CC[C@@]13CC(=O)[C@@](CO)(CCC12)C3` (stereo partly drawn), the GI50 in the assay with TK-10 renal, in the assay with HCT-116 colon, with UACC-62 melanoma, with SK-MEL-5 melanoma, in the assay on RXF 393 renal and in the assay with T-47D breast was over 100 µM throughout. Moreover, the GI50 in the assay on HOP-62 NSCLC was over 100 µM. For the same compound, the TGI in the assay on TK-10 renal, in the assay on HCT-116 colon, in the assay on UACC-62 melanoma, with SK-MEL-5 melanoma, in the assay on RXF 393 renal and in the assay on T-47D breast was over 100 µM in each case. In the assay with HOP-62 NSCLC, this compound yielded a TGI of over 100 µM.

As to `NCC(=O)CCC(=O)O`, the GI50 with TK-10 renal, with HCT-116 colon, with UACC-62 melanoma, in the assay with SK-MEL-5 melanoma, in the assay on RXF 393 renal and in the assay with T-47D breast was over 100 µM each time. Besides, in the assay on HOP-62 NSCLC, the GI50 was over 100 µM. Also, the TGI with TK-10 renal, in the assay on HCT-116 colon, in the assay with UACC-62 melanoma, in the assay on SK-MEL-5 melanoma, with RXF 393 renal and in the assay on T-47D breast was over 100 µM each time. The compound further had a TGI in the assay with HOP-62 NSCLC of over 100 µM.

Turning to `COc1ccc(-c2c(C#N)c(N)nc3c2CCCc2ccc(F)cc2-3)cc1OC`, the GI50 with TK-10 renal was under 0.0163 µM; in the assay with HCT-116 colon, 0.187 µM; in the assay on UACC-62 melanoma, under 0.0169 µM; in the assay with RXF 393 renal, 0.0586 µM; with T-47D breast, 22.3 µM; with HOP-62 NSCLC it was 0.131 µM. Moreover, the TGI with TK-10 renal was 1.7 µM; in the assay with HCT-116 colon it was 11 µM; with SK-MEL-5 melanoma, 0.483 µM; with RXF 393 renal it was over 82.9 µM; in the assay on T-47D breast, over 100 µM; with HOP-62 NSCLC, 29.7 µM.
